# Source: publication PMC2361651 (British Journal of Cancer, 2005)
# Assays:
# [1] = system: coagulation / fibrinolytic pathway; assay: Coagulation parameters and expanded coagulation series in patients; format: in vivo, human
# Experimental: During the dose escalation stage of the protocol, a standard series of coagulation parameters (APPT, INR and fibrinogen) was explored at baseline prior to therapy and every 2 weeks thereafter. In the dose expansion phase of the protocol, in response to the clinical occurrence of two separate venous thrombotic episodes in study patients, an expanded coagulation series was performed.
# At each time point, blood was collected in citrated and EDTA tubes (Becton-Dickinson Vacutainer Systems, Europe). The samples from the citrated tubes were immediately centrifuged (at 4°C for 10 min at 3000 r.p.m.) supernatants pooled into inert plastic, centrifuged again (at 4°C, 10 min at 3000 r.p.m.) and the resultant sample stored in inert plastic tubes at −70°C until analysis. The sample taken into EDTA was centrifuged (at 4°C, for 10 min at 3000 r.p.m.), the supernatant decanted into inert plastic tubes and again stored at −70°C until analysis.
# [2] = human, in vivo
# [3] = cited from earlier work
# [4] = set-up: method as in Fong et al, 1999; details: preclinical models, intracellular; ref Fong et al, 1999; cited from earlier work
smiles,measurement,setting,value
"Cc1cc(C)c(/C=C2\C(=O)Nc3ccccc32)[nH]1 [SU5416, Z-3-[(2,4-dimethylpyrrol-5-yl)methylidenyl]-2-indolinone]","change in INR, APTT or fibrinogen",[1]; baseline and every 2 weeks,No change
same,"reduction in plasmin–anti-plasmin complexes, median change","[1]; six patients, expanded panel",12.7 µg/L
same,"reduction in plasmin–anti-plasmin complexes, range of change","[1]; six patients, expanded panel",0 to 36 µg/L
same,"acute increase in plasminogen activator inhibitor (PAI-1) levels, median change","[1]; six patients, expanded panel, recovery at 24 h",37.3 IU
same,"Grade II hypersensitivity reactions, patients affected",[2],11 patients
same,degree of induction of SU5416 metabolism,"[3]; same schedule, sampling from day 1, ref Cropp et al, 1999, Rosen et al",69%
same,dose at which DLT (projectile vomiting and severe headache) was reported,"[3]; same twice weekly schedule, ref Rosen et al, 1999",190 mg m^−2
same,time for which levels capable of target inhibition are maintained,[4],> 48 h
